Laboratory results taken from publication PMC7181660, “A novel specific PERK activator reduces toxicity and extends survival in Huntington's disease models” (Scientific Reports, 2020).
Like-named read-outs stand apart in the source and are kept apart here.

Columns and labels:
Assay in all cases: biochemical
Type in all cases: biochemical
panel of 391 kinases [1] = target: panel of 391 kinases (Homo sapiens, UniProt P34947); conditions: GRK5, MK-28 1 µM, ATP 1 µM
panel of 391 kinases [2] = target: panel of 391 kinases (Homo sapiens, UniProt Q7KZI7); conditions: MARK2/PAR-1Ba, MK-28 1 µM, ATP 1 µM
panel of 391 kinases [3] = target: panel of 391 kinases (Homo sapiens, UniProt O94921); conditions: CDK14/cyclin Y (PFTK1), MK-28 1 µM, ATP 1 µM
panel of 391 kinases [4] = target: panel of 391 kinases (Homo sapiens, UniProt O75676); conditions: MSK2/RPS6KA4, MK-28 1 µM, ATP 1 µM
panel of 391 kinases [5] = target: panel of 391 kinases (Homo sapiens, UniProt Q13188); conditions: MST2/STK3, MK-28 1 µM, ATP 1 µM
panel of 391 kinases [6] = target: panel of 391 kinases (Homo sapiens, UniProt Q02779); conditions: MLK2/MAP3K10, MK-28 1 µM, ATP 1 µM
panel of 391 kinases [7] = target: panel of 391 kinases (Homo sapiens, UniProt P49760); conditions: CLK2, MK-28 1 µM, ATP 1 µM
panel of 391 kinases [8] = target: panel of 391 kinases (Homo sapiens, UniProt P42679); conditions: CTK/MATK, MK-28 1 µM, ATP 1 µM
panel of 391 kinases [9] = target: panel of 391 kinases (Homo sapiens, UniProt P36896); conditions: ALK4/ACVR1B, MK-28 1 µM, ATP 1 µM
panel of 391 kinases [10] = target: panel of 391 kinases (Homo sapiens, UniProt O00141); conditions: SGK1, MK-28 1 µM, ATP 1 µM
panel of 391 kinases [11] = target: panel of 391 kinases (Homo sapiens, UniProt Q00526); conditions: MK-28 1 µM, ATP 1 µM; for remaining activity at 1 µM: read-out: % Enzyme Activity (relative to DMSO controls)
panel of 391 kinases [12] = target: panel of 391 kinases (Homo sapiens, UniProt P08069); conditions: IGF1R, MK-28 1 µM, ATP 1 µM
panel of 391 kinases [13] = target: panel of 391 kinases (Homo sapiens, UniProt Q13163); conditions: MEK5, MK-28 1 µM, ATP 1 µM
panel of 391 kinases [14] = target: panel of 391 kinases (Homo sapiens, UniProt Q9Y4K4); conditions: KHS/MAP4K5, MK-28 1 µM, ATP 1 µM
panel of 391 kinases [15] = target: panel of 391 kinases (Homo sapiens, UniProt Q8IW41); conditions: MAPKAPK5/PRAK, MK-28 1 µM, ATP 1 µM
panel of 391 kinases [16] = target: panel of 391 kinases (Homo sapiens, UniProt Q9HCP0); conditions: CK1g1, MK-28 1 µM, ATP 1 µM
panel of 391 kinases [17] = target: panel of 391 kinases (Homo sapiens, UniProt Q14289); conditions: PYK2, MK-28 1 µM, ATP 1 µM
panel of 391 kinases [18] = target: panel of 391 kinases (Homo sapiens, UniProt Q9UF33); conditions: EPHA6, MK-28 1 µM, ATP 1 µM
panel of 391 kinases [19] = target: panel of 391 kinases (Homo sapiens, UniProt P09769); conditions: FGR, MK-28 1 µM, ATP 1 µM
panel of 391 kinases [20] = target: panel of 391 kinases (Homo sapiens, UniProt P06239); conditions: LCK, MK-28 1 µM, ATP 1 µM
panel of 391 kinases [21] = target: panel of 391 kinases (Homo sapiens, UniProt Q9Y2H1); conditions: STK38L/NDR2, MK-28 1 µM, ATP 1 µM
panel of 391 kinases [22] = target: panel of 391 kinases (Homo sapiens, UniProt P21802); conditions: FGFR2, MK-28 1 µM, ATP 1 µM
panel of 391 kinases [23] = target: panel of 391 kinases (Homo sapiens, UniProt Q15759); conditions: P38b/MAPK11, MK-28 1 µM, ATP 1 µM
panel of 391 kinases [24] = target: panel of 391 kinases (Homo sapiens, UniProt P54756); conditions: EPHA5, MK-28 1 µM, ATP 1 µM
panel of 391 kinases [25] = target: panel of 391 kinases (Homo sapiens, UniProt Q8IU85); conditions: CAMK1d, MK-28 1 µM, ATP 1 µM
panel of 391 kinases [26] = target: panel of 391 kinases (Homo sapiens, UniProt Q9BUB5); conditions: MNK1, MK-28 1 µM, ATP 1 µM
[27] = read-out: % Enzyme Activity (relative to DMSO controls)

CN(/N=C\c1ccc(O)c(O)c1)c1nc(-c2ccccc2)cc(-c2ccccc2)n1 [MK-28]
% Enzyme Activity (relative to DMSO controls) (panel of 391 kinases [1]): 103.49%
remaining activity at 1 µM (panel of 391 kinases [1]; [27]): 104%
% Enzyme Activity (relative to DMSO controls) (panel of 391 kinases [2]): 98.73%
remaining activity at 1 µM (panel of 391 kinases [2]; [27]): 106%
% Enzyme Activity (relative to DMSO controls) (panel of 391 kinases [3]): 103.85%
remaining activity at 1 µM (panel of 391 kinases [3]; [27]): 105%
% Enzyme Activity (relative to DMSO controls) (panel of 391 kinases [4]): 94.82%
remaining activity at 1 µM (panel of 391 kinases [4]; [27]): 96.8%
% Enzyme Activity (relative to DMSO controls) (panel of 391 kinases [5]): 100.15%
remaining activity at 1 µM (panel of 391 kinases [5]; [27]): 101%
% Enzyme Activity (relative to DMSO controls) (panel of 391 kinases [6]): 95.47%
remaining activity at 1 µM (panel of 391 kinases [6]; [27]): 100%
% Enzyme Activity (relative to DMSO controls) (panel of 391 kinases [7]): 103.52%
remaining activity at 1 µM (panel of 391 kinases [7]; [27]): 108%
% Enzyme Activity (relative to DMSO controls) (panel of 391 kinases [8]): 98.98%
remaining activity at 1 µM (panel of 391 kinases [8]; [27]): 101%
% Enzyme Activity (relative to DMSO controls) (panel of 391 kinases [9]): 89.88%
remaining activity at 1 µM (panel of 391 kinases [9]; [27]): 92.3%
% Enzyme Activity (relative to DMSO controls) (panel of 391 kinases [10]): 103.26%
remaining activity at 1 µM (panel of 391 kinases [10]; [27]): 108%
% Enzyme Activity (relative to DMSO controls) (panel of 391 kinases [11]; CDK3/cyclin E2): 90.11%
remaining activity at 1 µM (panel of 391 kinases [11]; CDK3/cyclin E2): 92.8%
% Enzyme Activity (relative to DMSO controls) (panel of 391 kinases [11]; CDK3/cyclin E): 101.82%
remaining activity at 1 µM (panel of 391 kinases [11]; CDK3/cyclin E): 102%
% Enzyme Activity (relative to DMSO controls) (panel of 391 kinases [12]): 98.39%
remaining activity at 1 µM (panel of 391 kinases [12]; [27]): 100%
% Enzyme Activity (relative to DMSO controls) (panel of 391 kinases [13]): 100.81%
remaining activity at 1 µM (panel of 391 kinases [13]; [27]): 105%
% Enzyme Activity (relative to DMSO controls) (panel of 391 kinases [14]): 84.30%
remaining activity at 1 µM (panel of 391 kinases [14]; [27]): 86.9%
% Enzyme Activity (relative to DMSO controls) (panel of 391 kinases [15]): 77.52%
remaining activity at 1 µM (panel of 391 kinases [15]; [27]): 77.8%
% Enzyme Activity (relative to DMSO controls) (panel of 391 kinases [16]): 78.20%
remaining activity at 1 µM (panel of 391 kinases [16]; [27]): 80%
% Enzyme Activity (relative to DMSO controls) (panel of 391 kinases [17]): 101.51%
remaining activity at 1 µM (panel of 391 kinases [17]; [27]): 103%
% Enzyme Activity (relative to DMSO controls) (panel of 391 kinases [18]): 92.67%
remaining activity at 1 µM (panel of 391 kinases [18]; [27]): 94%
% Enzyme Activity (relative to DMSO controls) (panel of 391 kinases [19]): 99.92%
remaining activity at 1 µM (panel of 391 kinases [19]; [27]): 100%
% Enzyme Activity (relative to DMSO controls) (panel of 391 kinases [20]): 116.76%
remaining activity at 1 µM (panel of 391 kinases [20]; [27]): 117%
% Enzyme Activity (relative to DMSO controls) (panel of 391 kinases [21]): 94.10%
remaining activity at 1 µM (panel of 391 kinases [21]; [27]): 96%
% Enzyme Activity (relative to DMSO controls) (panel of 391 kinases [22]): 102.46%
remaining activity at 1 µM (panel of 391 kinases [22]; [27]): 103%
% Enzyme Activity (relative to DMSO controls) (panel of 391 kinases [23]): 107.60%
remaining activity at 1 µM (panel of 391 kinases [23]; [27]): 109%
% Enzyme Activity (relative to DMSO controls) (panel of 391 kinases [24]): 98.83%
remaining activity at 1 µM (panel of 391 kinases [24]; [27]): 103%
% Enzyme Activity (relative to DMSO controls) (panel of 391 kinases [25]): 86.95%
remaining activity at 1 µM (panel of 391 kinases [25]; [27]): 87.6%
% Enzyme Activity (relative to DMSO controls) (panel of 391 kinases [26]): 114.65%
remaining activity at 1 µM (panel of 391 kinases [26]; [27]): 116%
